Source: patent publication US20260000642A1 (Tay Therapeutics Limited, priority 2022, published 2026)
Several values for one entry are separate records, joined by “and”; a condition that tells them apart may be missing. Identical values can stand only once.

Assays:
hydroxyproline = experiment: UUO model: kidney hydroxyproline by ELISA; format: in vivo, rat; conditions: UUO rats; 30 mg/kg; compared with sham and UUO + vehicle
Text: (§1) Serum for blood biochemistry analysis was collected into centrifuge tubes without coagulant four hours after final dosing. Blood plasma samples from group 3 was collected into tubes with K2EDTA four hours after final dosing. At the conclusion of the study (end of the 14-day period), animals were euthanized. Kidney tissue was collected four hours after final dosing. Ligated side kidney was divided into three copies 1/3 fix into 10% formalin for H&E analysis, 1/3 into RNA for PCR analysis of tissue biomarkers Col1a1, TGF-b1, MCP-1, IL-1b, IL-6, IL-17, TNF-a, and Timp1, and 1/3 for hydroxyproline assay analyzed by ELISA. RNA was extracted from tissue using the RNeasy mini kit (Qiagen). RNA concentration was measured using a NanoDrop One Spectrophotometer (ThermoFisher) and converted to cDNA using a High-Capacity RNA-to-cDNA kit (Invitrogen). RT-PCR was performed to measure levels of mRNA of different targets using TaqMan® Gene Expression Master Mix and TaqMan® probe/primer sets on a QuantStudio 6 Real-Time PCR System (ThermoFisher). Fold change in target gene expression was determined using the ΔΔCt method.

[1] = tested on: Col1a1, TGF-b1, MCP-1, IL-1b, IL-6, IL-17, TNF-a, and Timp1; experiment: UUO model: kidney tissue biomarker mRNA by RT-PCR; format: in vivo, rat; conditions: UUO rats; 30 mg/kg
Text: as §1

[2] = tested on: UUO renal fibrosis in rats; experiment: Unilateral Urethral Obstruction (UUO) rat renal fibrosis model: body weight, clinical observations, nephropathy scores; format: in vivo; set-up: Glomerulosclerosis clinical score / Interstitial nephritis clinical score / Collagen fiber deposition clinical score / Nephropathy clinical score: scale not given here; conditions: for Body weight: individual animals ID 1-8; for Clinical Observation: — = no finding, cells wrap: soft/stool, Anal/dirty
Text: Unilateral Urethral Obstruction (UUO) is a complex model of renal fibrosis (RF) disease. RF is a common outcome in progressive chronic kidney diseases, characterized by excessive formation of internal scar tissue. Surgical obstruction of urine flow can be used to trigger this disease in rodents. The UUO model allows for evaluation of potential drugs as treatment for RF.
Experimental groups for the study are outlined in Table 10. […] Briefly, animals were anesthetized using a Zoletil/Xylazine mixture (20:1, v:v) for a final dose of 25 mg/kg. The operation area was disinfected with 75% alcohol before shaving. Rats in UUO group were exposed left ureter through a small incision on the left side of the abdomen and ligated with 3-0 silk at two locations about 0.5 cm below the renal hilum. The ureters of sham rats in Group 1 were manipulated but not ligated.
Starting on Day 0, animals in group 2 were administered daily doses of the vehicle for 14 days.
(§2) Clinical signs for all animals were monitored and recorded daily. Blind clinical nephropathy scores were conducted for all animals in the study. Glomerulosclerosis, interstitial nephritis, collagen fiber deposition, nephropathy were each assessed for all experimental rats, and a total clinical score was determined for each rat. The scoring system represented the degree or percentage of lesions in the whole kidney. Clinical score assessments were performed on Day 14.
Starting on Day 0, animals in group 2 were administered daily doses of the vehicle for 14 days. […] A design of the UUO study is depicted in FIG. 9B.
as §2, with “Blind” for “Clinical signs for all animals were monitored and recorded daily. Blind”, “deposition, and” for “deposition,”

IL-22 = experiment: Human PBMC assay, IL-22 by ELISA (CD2/CD3/CD28 bead stimulation); format: cell-based; conditions: 72 hours
Description: CD2, CD3, and CD28 antibody-coated beads from the T-cell activation/expansion kit (Miltenyi Biotec) were added to the PBMC at a bead-to-cell ratio of 1:2. The mixture of PBMCs and beads were seeded into the wells of the round-bottom 96-well plate at a concentration of 2×10^5 cells/well in a total volume of 200 μL. The cells were cultured for 72 hours at 37° C. and 5% CO2 and then supernatants were collected and IL-17A and IL-22 levels were measured by ELISA. […] The final compound concentration ranged from 30,000 nM to 0.005 nM and the final DMSO concentration per well was 0.3%. PBMCs were seeded at approximately […] in the wells of the 96-well tissue culture plate in a total volume of 190 μL. The plate was incubated for 1 hour at 37° C. and 5% CO2. […] The cells were then cultured for 24 hours at 37° C. and 5% CO2. The supernatant was collected and CXCL10 levels were measured by ELISA.

[3] = Pharmacokinetics of Example 101 in Lewis rats (oral, CIA study); format: in vivo, Lewis rat; conditions: day 20, 10 mg/kg, individual test subjects
[4] = UUO rats, individual animals No. 1-8

For `CNC(=O)c1[nH]c(C(=O)NC2CCC2)cc1O[C@@H](C)c1ccccc1` [Example 101, N^5-cyclobutyl-N^2-methyl-3-(1-phenylethoxy)-1H-pyrrole-2,5-dicarboxamide], the hydroxyproline levels (hydroxyproline) was “No significant differences”, the “expression of IL-17 relative to UUO + vehicle” value [1] was “limited effect” and the “expression of TNF-a relative to UUO + vehicle” value [1] was “limited effect”. The “tissue RNA level of Col1a1 relative to UUO + vehicle” value [1] was “reduced”, the “tissue RNA level of IL-1b relative to UUO + vehicle” value [1] was “reduced” and the “tissue RNA level of IL-6 relative to UUO + vehicle” value [1] was “reduced”. For the same compound, the “tissue RNA level of MCP-1 relative to UUO + vehicle” value [1] was “reduced”, the “tissue RNA level of TGB-b1 relative to UUO + vehicle” value [1] was “reduced” and the “tissue RNA level of Timp1 relative to UUO + vehicle” value [1] was “reduced”. The “clinical symptoms associated with UUO (overall conclusion)” value ([2]; 30 mg/kg) was “ameliorates clinical symptoms associated with UUO”, the Body weight ([2]; UUO rats, 30 mg/kg, Day 5, 30 mg/kg) was 310 g and the Body weight ([2]; UUO rats, 30 mg/kg, Day 7, 30 mg/kg) was 270 g. The Body weight ([2]; UUO rats, 30 mg/kg, Day 8, 30 mg/kg) was 260 g and 290 g, the Body weight ([2]; UUO rats, 30 mg/kg, Day 10, 30 mg/kg) was 330 g (2×) and 320 g and the Body weight ([2]; UUO rats, 30 mg/kg, Day 11, 30 mg/kg) was 300 g and 330 g. For the same compound, the Body weight ([2]; UUO rats, 30 mg/kg, Day 12, 30 mg/kg) was 260 g and 310 g and 300 g and 340 g, the “Collagen fiber deposition clinical score” value [2, 4] was 2 (2×) and 1 (6×) and the Glomerulosclerosis clinical score [2, 4] was 0. For the same compound, the “Interstitial nephritis clinical score” value [2, 4] was 3 (5×) and 2 (3×), the Nephropathy clinical score [2, 4] was 2 (2×) and 1 (6×) and the “Clinical Observation” value ([2]; UUO rats, individual animals No. 1-8, Day 3) was “diarrhea”. The “Clinical Observation” value ([2]; UUO rats, individual animals No. 1-8, Day 5) was “Anal”, the “Clinical Observation” value ([2]; UUO rats, individual animals No. 1-8, Day 6) was “Anal” and the “Clinical Observation” value ([2]; UUO rats, individual animals No. 1-8, Day 7) was “Anal”. The “Clinical Observation” value ([2]; UUO rats, individual animals No. 1-8, Day 8) was “soft”, the “Clinical Observation” value ([2]; UUO rats, individual animals No. 1-8, Day 9) was “soft” and the “Clinical Observation” value ([2]; UUO rats, individual animals No. 1-8, Day 10) was “soft”. The “Clinical Observation” value ([2]; UUO rats, individual animals No. 1-8, Day 13) was “soft”, the “Clinical Observation” value ([2]; UUO rats, individual animals No. 1-8, Day 14) was “Anal (2×) and soft” and the “interstitial nephritis in representative pathology staining” value ([2]; UUO rats, 30 mg/kg (FIG. 13B)) was “mild interstitial nephritis”. The animals exhibiting diarrhea ([2]; UUO rats, 30 mg/kg, 14 days) was “One animal”, the “animals exhibiting dirty anuses” value ([2]; UUO rats, 30 mg/kg, 14 days) was “Three animals” and the “animals exhibiting soft stools” value ([2]; UUO rats, 30 mg/kg, 14 days) was “Four UUO rats”. For the same compound, the “body weight over the 14-day study” value ([2]; UUO rats, 30 mg/kg, BID at 0 and 8 hours, 14 days (group 3)) was “slight weight loss over the first seven days of the study, and then gained weight over the remaining seven days”, the “collagen fiber deposition score relative to UUO + vehicle” value ([2]; UUO rats, 30 mg/kg, Day 14) was “reduced” and the “interstitial nephritis score relative to UUO + vehicle” value ([2]; UUO rats, 30 mg/kg, Day 14) was “reduced”. For the same compound, the “nephropathy score relative to UUO + vehicle” value ([2]; UUO rats, 30 mg/kg, Day 14) was “reduced”, the “total clinical scores relative to UUO + vehicle” value ([2]; UUO rats, 30 mg/kg, Day 14) was “reduced” and the “IC50 for IL-22 relative to GSK620” value (IL-22) was “substantially lower 1050”. The “Plasma concentration at 14 h” value [3] was 68.5 ng/mL and 159 ng/mL and 185 ng/mL.
